From ChEMBL document CHEMBL4739717, “Methods of treating cartilage disorders through inhibition of clk and dyrk” (2020)

Columns and labels:
[1] = Effect on Wnt signaling pathway in human SW480 cells harbouring TCF/LEF luciferase reporter gene and SP5-Luc reporter gene incubated for 36 to 48 hrs by luminescence assay; type: cell-based
[2] = molecular target: Dual specificity tyrosine-phosphorylation-regulated kinase 1A (Homo sapiens, UniProt Q13627); experiment: Inhibition of recombinant DYRK1A (unknown origin) using Ser/Thr 18 peptide as substrate incubated for 1 hr in presence of ATP by FRET assay
[3] = Induction of chondrogenesis in human MSC assessed as maximum activity at 100 nM incubated for 6 days by rhodamine B and Nile red staining based imaging analysis relative to control; type: functional; details: BMMSC, 144 h, time 6 day
[4] = Induction of chondrogenesis in human MSC assessed as maximum activity at 30 nM incubated for 6 days by rhodamine B and Nile red staining based imaging analysis relative to control; type: functional; details: BMMSC, 144 h, time 6 day
[5] = Inhibition of IL1-beta induced MMP3 expression levels in human chondrocytes assessed as MMP3 levels incubated for 2hrs followed by IL1-beta stimulation and measured after overnight incubation by LANCE assay; type: functional, cell-based; details: Chondrocyte
[6] = Induction of chondrogenesis in human MSC assessed as incubated for 6 days by rhodamine B and Nile red staining based imaging analysis; type: functional; details: bmmsc

Compound | EC50 [1] [nM] | EC50 [2] [nM] | EC50 [5] [nM] | EC50 [6] [nM] | Emax at 0.1 µM [3] [%] | Emax at 0.03 µM [4] [%]
CN(C)Cc1cncc(-c2cnc3[nH]nc(-c4nc5c(-c6ccsc6)cncc5[nH]4)c3c2)c1 | 57 | 10 | – | – | 91.3 | –
O=C(Nc1cncc(-c2cnc3[nH]nc(-c4cc5cccnc5[nH]4)c3c2)c1)C1CCCCC1 | 1260 | 11 | – | – | 28.5 | –
c1cc2[nH]c(-c3n[nH]c4ccc(-c5cncc(CN6CCCCC6)c5)cc34)cc2c(N2CCCCC2)n1 | 4210 | 32 | – | – | 48.1 | –
Cc1cn(-c2cncc3[nH]c(-c4n[nH]c5ccc(-c6cncc(NC(=O)C7CCC7)c6)nc45)nc23)cn1 | > 10000 | 8 | – | – | 47.2 | –
O=C(CC1CCNCC1)Nc1cncc(-c2ccc3[nH]nc(-c4cc5c(N6CCCCC6)nccc5[nH]4)c3n2)c1 | > 10000 | 6 | 1470 | – | – | 21.8
Cc1nnc(-c2ccc3cnc(NC(=O)c4ccnc(N(C)C5CCN(C)CC5)c4)cc3c2)s1 | – | – | 2.7 | – | – | 25.7
CN1CCN(c2nccc3[nH]c(-c4n[nH]c5cnc(-c6cncc(NC(=O)C(C)(C)C)c6)cc45)cc23)CC1 | 1880 | 3 | – | 10 | – | 88.2
O=C(Nc1cncc(-c2ccc3[nH]nc(-c4cc5ccncc5[nH]4)c3n2)c1)C1CCCC1 | 2630 | 12 | – | 30 | – | 50.3
CC(C)C(=O)Nc1cncc(-c2cnc3[nH]nc(-c4cc5c(N6CCN(C)CC6)nccc5[nH]4)c3c2)c1 | > 10000 | 7 | – | 30 | – | 61.6
FC1(F)CCN(Cc2cncc(-c3ccc4[nH]nc(-c5cc6c(-c7ccccn7)cccc6[nH]5)c4n3)c2)C1 | 432 | 33 | – | 10 | – | 81.9
O=C(Nc1cncc(-c2cnc3[nH]nc(-c4cc5c(-c6ccncc6)cncc5[nH]4)c3c2)c1)C1CCC1 | > 10000 | 4 | 17.9 | – | – | 43.5
Cn1ncc(-c2ccc3cnc(NC(=O)c4cccc(CN5CCCC5)c4)cc3c2)c1CN1CCCCC1 | – | – | 1190 | – | – | 27.6
CC(C)(C)C(=O)Nc1cncc(-c2ccc3[nH]nc(-c4nc5c(-c6ccc(Cl)s6)cncc5[nH]4)c3n2)c1 | 551 | 70 | – | 10 | – | 84.7
CC(C)Nc1cncc(-c2ccc3[nH]nc(-c4nc5c(-c6ccoc6)cncc5[nH]4)c3n2)c1 | 597 | 24 | – | 30 | – | 75.3
CCCCC(=O)Nc1cncc(-c2ccc3[nH]nc(-c4cc5c(N6CCCCC6)nccc5[nH]4)c3n2)c1 | 4050 | 43 | – | 30 | – | 54.7
O=C(Nc1cncc(-c2cc3c(-c4cc5cnccc5[nH]4)n[nH]c3cn2)c1)C1CC1 | 1540 | 4 | – | 30 | – | 58.5
CCC(=O)Nc1cncc(-c2cc3c(-c4cc5c(-c6cccc(F)c6)nccc5[nH]4)n[nH]c3cn2)c1 | 305 | 45 | – | 30 | – | 50.8
O=C(Nc1c[nH]nc1C(=O)Nc1cncc(-c2cccc(F)c2)c1)c1cncc(OC2CCNCC2)c1 | 1600 | 12 | 339 | – | – | 89.5
CN1CCN(c2nccc3[nH]c(-c4n[nH]c5cc(F)c(-c6cnn(C)c6)cc45)nc23)CC1 | 85.7 | 4 | 35.5 | – | – | 113
CS(=O)(=O)NCc1cc(F)cc(-c2cncc3[nH]c(-c4n[nH]c5ccc(-c6cncnc6)nc45)cc23)c1 | 1030 | 76 | – | 10 | – | 106
CC(C)C(=O)Nc1cncc(-c2cnc3[nH]nc(-c4cc5c(-c6cc(F)cc(CNS(C)(=O)=O)c6)cncc5[nH]4)c3c2)c1 | > 10000 | 31 | – | 30 | – | 59.6
CN1CCN(c2cncc3[nH]c(-c4n[nH]c5ccc(-c6cncc(CNCc7ccccc7)c6)cc45)cc23)CC1 | 3290 | 7 | 329 | 30 | – | 101

More lines, main results first:

EC50 [1] [nM] | EC50 [2] [nM] | EC50 [5] [nM] | EC50 [6] [nM] | Compound | Emax at 0.1 µM [3] [%] | Emax at 0.03 µM [4] [%]
890 | 20 | – | – | CC(C)(C)CC(=O)Nc1cncc(-c2ccc3[nH]nc(-c4cc5c(-c6ccoc6)ccnc5[nH]4)c3c2)c1 | 21.2 | –
260 | 6 | – | – | CC(C)C(=O)Nc1cncc(-c2ccc3[nH]nc(-c4cc5c(-c6cccnc6)cncc5[nH]4)c3c2)c1 | 34.5 | –
3750 | 71 | – | – | Fc1cccc(-c2nccc3[nH]c(-c4n[nH]c5ccc(-c6cncc(CN7CCCCC7)c6)nc45)cc23)c1 | 48 | –
> 10000 | 47 | – | 30 | c1cncc(-c2ccc3[nH]nc(-c4nc5c(-c6cccnc6)cncc5[nH]4)c3n2)c1 | – | 83.8
2 | 5 | – | 30 | Nc1cncc(-c2ccc3[nH]nc(-c4nc5c(-c6ccccc6F)ccnc5[nH]4)c3c2)c1 | – | 113
92.4 | 42 | – | 100 | c1cncc(-c2cc3c(-c4nc5c(-c6cccnc6)cccc5[nH]4)n[nH]c3cn2)c1 | – | 93
26.4 | 28 | – | 30 | Fc1cccc(-c2cncc3[nH]c(-c4n[nH]c5ccc(-c6cncc(CN7CCC(F)(F)C7)c6)cc45)nc23)c1 | – | 102
> 10000 | 70 | – | 30 | CCNCc1cncc(-c2cc3c(-c4cc5c(-c6ccccc6F)ccnc5[nH]4)n[nH]c3cn2)c1 | – | 270
875 | 4 | – | 30 | CC(C)CC(=O)Nc1cncc(-c2ccc3[nH]nc(-c4cc5c(-c6ccncc6)cncc5[nH]4)c3c2)c1 | – | 70.2
1610 | 36 | – | 100 | COc1cccc(-c2ccnc3[nH]c(-c4n[nH]c5ccc(-c6cccnc6)nc45)nc23)c1 | – | 50.5
48 | 9 | 3000 | 30 | CN(C)Cc1cncc(-c2cnc3[nH]nc(-c4nc5c(-c6cccs6)cncc5[nH]4)c3c2)c1 | – | 146
40.5 | 96 | – | 30 | CS(=O)(=O)NCc1cc(F)cc(-c2nccc3[nH]c(-c4n[nH]c5ccc(-c6cncnc6)cc45)nc23)c1 | – | 73.1
> 10000 | 10 | – | 100 | c1cncc(-c2ccc3[nH]nc(-c4cc5c(-c6cccnc6)ccnc5[nH]4)c3n2)c1 | – | 59.2
4.6 | 61 | – | 30 | CCC(=O)Nc1cncc(-c2ccc3[nH]nc(-c4nc5c(-c6cccc(F)c6)cncc5[nH]4)c3c2)c1 | – | 139
7.7 | 17 | – | 30 | CCCC(=O)Nc1cncc(-c2ccc3[nH]nc(-c4nc5c(-c6ccsc6)ccnc5[nH]4)c3c2)c1 | – | 72.6
59.3 | 2 | – | 30 | CCNCc1cncc(-c2cc3c(-c4nc5c(-c6ccsc6)nccc5[nH]4)n[nH]c3cn2)c1 | – | 67.7
2490 | 12 | – | 30 | CN(C)Cc1cncc(-c2cnc3[nH]nc(-c4cc5c(-c6ccccc6F)cncc5[nH]4)c3c2)c1 | – | 60.9
604 | 33 | – | 30 | Nc1cncc(-c2ccc3[nH]nc(-c4cc5c(N6CCCCC6)ccnc5[nH]4)c3c2)c1 | – | 130
4 | 10 | 3000 | 30 | CC(C)C(=O)Nc1cncc(-c2ccc3[nH]nc(-c4nc5c(-c6ccccc6F)cncc5[nH]4)c3c2)c1 | – | 102
3620 | 60 | – | 30 | Fc1ccc(-c2nccc3[nH]c(-c4n[nH]c5ccc(-c6cncc(CN7CCCC7)c6)cc45)cc23)cc1 | – | 98.5
> 10000 | 2 | – | 30 | O=C(Nc1cncc(-c2cnc3[nH]nc(-c4cc5cnccc5[nH]4)c3c2)c1)c1ccccc1 | – | 69.9
321 | 20 | – | 30 | O=C(Nc1cncc(-c2cnc3[nH]nc(-c4cc5c(-c6ccccc6F)nccc5[nH]4)c3c2)c1)C1CC1 | – | 78.1
75 | 2 | – | 10 | O=C(Nc1cncc(-c2ccc3[nH]nc(-c4cc5cnccc5[nH]4)c3c2)c1)C1CCC1 | – | 213
13 | 5 | – | 30 | CN(C)Cc1cncc(-c2cnc3[nH]nc(-c4nc5c(-c6cccc(F)c6)cncc5[nH]4)c3c2)c1 | – | 183
202 | 11 | – | 30 | CC(C)Nc1cncc(-c2ccc3[nH]nc(-c4nc5c(-c6cc(F)cc(NCCN(C)C)c6)nccc5[nH]4)c3c2)c1 | – | 85.1
10.4 | 9 | – | 30 | Cc1cn(-c2nccc3[nH]c(-c4n[nH]c5ccc(-c6cncc(NC(=O)CC(C)C)c6)cc45)nc23)cn1 | – | 73.7
40 | 1 | – | 10 | c1cncc(-c2ccc3[nH]nc(-c4cc5cnccc5[nH]4)c3c2)c1 | – | 342
